Here are results for 18 molecules from patent publication US11214578B2, “Urea/carbamates FAAH MAGL or dual FAAH/MAGL inhibitors and uses thereof” (Northeastern University, priority 2014, dated 2022).

Common to all, as to format: biochemical
The target of one test is T1, Human FAAH (MBPΔTMhFAAH) (Homo sapiens, UniProt O00519).
T1 construct: made in house; host or cells: E. coli (pMALcE4 vector)
T1 sequence (O00519 30-579 limits assumed): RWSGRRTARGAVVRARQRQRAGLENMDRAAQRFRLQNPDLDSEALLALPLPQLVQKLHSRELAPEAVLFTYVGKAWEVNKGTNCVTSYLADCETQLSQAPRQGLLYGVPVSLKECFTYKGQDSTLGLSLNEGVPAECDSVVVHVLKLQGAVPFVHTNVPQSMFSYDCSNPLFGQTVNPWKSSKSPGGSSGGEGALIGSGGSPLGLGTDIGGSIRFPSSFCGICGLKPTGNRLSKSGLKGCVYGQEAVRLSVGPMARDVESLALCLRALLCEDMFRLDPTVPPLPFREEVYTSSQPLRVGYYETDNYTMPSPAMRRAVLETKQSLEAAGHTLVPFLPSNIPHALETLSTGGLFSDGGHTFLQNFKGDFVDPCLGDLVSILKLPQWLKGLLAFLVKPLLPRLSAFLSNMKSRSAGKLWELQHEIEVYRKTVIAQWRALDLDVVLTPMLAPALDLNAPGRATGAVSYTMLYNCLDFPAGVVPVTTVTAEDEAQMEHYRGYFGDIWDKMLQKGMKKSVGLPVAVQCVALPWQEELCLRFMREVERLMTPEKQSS
Nature of the test: Fluorescent assay protocol for hFAAH. To be noted: human FAAH (MBP fusion, ΔTM), procedure as for rFAAH. Summed up:
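MBP-fused ΔTM human FAAH from E. coli, pre-incubated 15 min at 25 °C with compound in 50 mM HEPES, 1 mM EDTA, 0.1% BSA, pH 7.4 (DMSO below 8%). Substrate AAMCA 20 μM (2×Km); fluorescence (ex 360/em 460) at 3 h gave % inhibition vs uninhibited control, triplicate, IC50 fitted.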

A further test has as its target T2, Human MAGL (hMAGL) (Homo sapiens, UniProt Q99685).
T2 construct: hexahistidine; made in house; host or cells: E. coli
T2 sequence (Q99685 1-303): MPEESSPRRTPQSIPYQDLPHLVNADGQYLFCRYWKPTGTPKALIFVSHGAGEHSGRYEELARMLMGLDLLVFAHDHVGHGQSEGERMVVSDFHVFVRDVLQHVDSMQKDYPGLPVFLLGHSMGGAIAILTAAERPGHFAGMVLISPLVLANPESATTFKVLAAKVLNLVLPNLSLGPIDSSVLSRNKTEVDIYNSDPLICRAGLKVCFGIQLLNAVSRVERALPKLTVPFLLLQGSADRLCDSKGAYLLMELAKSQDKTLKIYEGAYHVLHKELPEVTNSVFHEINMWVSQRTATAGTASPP
As to the kind of experiment: Fluorescent assay protocol for hMAGL (AHMMCE substrate). The conditions noted are these: recombinant human MAGL, AHMMCE substrate, 15 min preincubation; read-out: IC50 hMAGL. An outline of the steps:
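Hydrolysis of AHMMCE by human MAGL was monitored at 25°C for 120 min, with fluorescence at 360/460 nm recorded every 15 min and converted to 4-methylcoumarin using external standards. IC50 values were derived from triplicate wells at each inhibitor concentration.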

The next test concerns the target T3, ΔTM rat FAAH (Rattus norvegicus, UniProt P97612).
T3 construct: Preparation of Transmembrane Domain-Deleted Rat FAAH (ΔTM rFAAH); made in house; host or cells: E. coli
T3 sequence (P97612 30-579 limits assumed): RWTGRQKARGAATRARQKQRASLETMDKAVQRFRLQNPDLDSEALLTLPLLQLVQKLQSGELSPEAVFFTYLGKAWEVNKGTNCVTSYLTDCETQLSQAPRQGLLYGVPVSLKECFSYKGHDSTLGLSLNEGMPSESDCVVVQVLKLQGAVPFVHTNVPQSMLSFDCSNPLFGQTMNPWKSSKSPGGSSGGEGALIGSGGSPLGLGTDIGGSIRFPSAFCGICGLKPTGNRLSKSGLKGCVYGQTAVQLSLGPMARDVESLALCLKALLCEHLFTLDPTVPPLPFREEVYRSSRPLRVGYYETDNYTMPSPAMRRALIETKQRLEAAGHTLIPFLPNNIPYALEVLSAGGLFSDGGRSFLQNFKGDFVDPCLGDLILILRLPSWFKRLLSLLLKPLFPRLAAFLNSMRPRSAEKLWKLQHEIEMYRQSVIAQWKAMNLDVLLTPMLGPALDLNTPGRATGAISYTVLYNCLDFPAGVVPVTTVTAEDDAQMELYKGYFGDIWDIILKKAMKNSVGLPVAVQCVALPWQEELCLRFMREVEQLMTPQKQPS
Nature of the test: Fluorescent assay protocol for ΔTM rat FAAH (AAMCA substrate). To be noted: 15 min preincubation, read-out: IC50 rFAAH. An outline of the steps:
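ΔTM rat FAAH (15 μg) was pre-incubated 15 min at 25° C with compound (screening at 1, 10 and 100 μM), then reacted with the fluorigenic substrate AAMCA. Percent inhibition came from fluorescence at 3 h (linear kinetics) relative to no-inhibitor controls, in triplicate.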

For another test, the target named is T4, Rat MAGL (rMAGL) (Rattus norvegicus, UniProt Q8R431).
T4 construct: made in house; host or cells: E. coli
T4 sequence (Q8R431 1-303): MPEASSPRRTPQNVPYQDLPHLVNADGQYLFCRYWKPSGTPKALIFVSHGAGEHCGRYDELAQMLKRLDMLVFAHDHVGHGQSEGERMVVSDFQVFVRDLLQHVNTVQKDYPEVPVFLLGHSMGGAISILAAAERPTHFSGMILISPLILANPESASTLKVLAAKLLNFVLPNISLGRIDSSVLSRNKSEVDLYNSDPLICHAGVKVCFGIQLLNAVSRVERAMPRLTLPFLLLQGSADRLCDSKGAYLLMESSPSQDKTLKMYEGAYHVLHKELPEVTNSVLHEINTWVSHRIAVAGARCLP
Nature of the test: Fluorescent assay protocol for rMAGL. The conditions noted are these: recombinant rat MAGL, procedure as for hMAGL; read-out: IC50 rMAGL. An outline of the steps: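 Rat MAGL run as for the human enzyme: AHMMCE substrate hydrolysis to fluorescent coumarin followed at 25° C. for 120 min, read every 15 min at 360/460 nm.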

Some results are limits rather than exact numbers.

One may read the IC50 as the concentration at which inhibition is half-maximal.

Regarding `O=C(N1CC(N2CCC(c3ccccc3)CC2)C1)n1cccn1` [Example 89, (3-(4-Phenylpiperidin-1-yl)azetidin-1-yl)(1H-pyrazol-1-yl)methanone], the IC50 on Human FAAH (MBPΔTMhFAAH), on Human MAGL (hMAGL), on ΔTM rat FAAH and at Rat MAGL (rMAGL) was 10 to 100 nM in each case.

With `O=C(N1CC(N2CCC(c3ccccc3)CC2)C1)n1cncn1` [Example 90], the IC50 on Human FAAH (MBPΔTMhFAAH), at Human MAGL (hMAGL), on ΔTM rat FAAH and on Rat MAGL (rMAGL) was 10 to 100 nM in each case.

On to `N#Cc1ccc(F)c(OC(=O)N2CCC(Cc3ccccc3)CC2)c1` [Example 45, 5-Cyano-2-fluorophenyl 4-benzylpiperidine-1-carboxylate], for which the IC50 on Human FAAH (MBPΔTMhFAAH) was 10 to 100 nM; at Human MAGL (hMAGL), > 1000 nM; at ΔTM rat FAAH, 10 to 100 nM; at Rat MAGL (rMAGL), > 1000 nM.

For the molecule `N#Cc1cccc(-c2cncc(NC(=O)N3CCC(c4ccccc4)CC3)c2)c1` [Example 16, N-(5-(3-cyanophenyl)pyridin-3-yl)-4-phenylpiperidine-1-carboxamide], the IC50 at Human FAAH (MBPΔTMhFAAH), on Human MAGL (hMAGL), at ΔTM rat FAAH and at Rat MAGL (rMAGL) was > 1000 nM in each case.

Turning to `O=C(Nc1cccnc1)N1CC(OCc2ccc(Br)cc2)C1` [Example 82, 3-(4-Bromobenzyloxy)-N-(pyridin-3-yl)azetidine-1-carboxamide], the IC50 on Human FAAH (MBPΔTMhFAAH) was 110 to 1000 nM; at Human MAGL (hMAGL), > 1000 nM; at ΔTM rat FAAH, 110 to 1000 nM; at Rat MAGL (rMAGL), > 1000 nM.

With `N#Cc1ccc(F)c(OC(=O)N2CCC(OC(c3ccccc3)c3ccccc3)CC2)c1` [Example 56, 5-cyano-2-fluorophenyl 4-(benzhydryloxy)piperidine-1-carboxylate], the IC50 at Human FAAH (MBPΔTMhFAAH), at Human MAGL (hMAGL), on ΔTM rat FAAH and at Rat MAGL (rMAGL) was 110 to 1000 nM each time.

For `N#Cc1cccc(-c2cccc(NC(=O)N3C[C@@H]4C[C@H]3CN4Cc3cccc(-c4ccccc4)c3)c2)c1` [Example 94, (1S,4S)-5-([1,1′-biphenyl]-3-ylmethyl)-N-(3′-cyano-[1,1′-biphenyl]-3-yl)-2,5-diazabicyclo[2.2.1]heptane-2-carboxamide], the IC50 at Human FAAH (MBPΔTMhFAAH) is 110 to 1000 nM; on Human MAGL (hMAGL), > 1000 nM; on ΔTM rat FAAH it was 110 to 1000 nM; at Rat MAGL (rMAGL), > 1000 nM.

For `O=C(Oc1cccc(N2CCS(=O)(=O)CC2)c1)N1CCC(c2ccccc2)CC1` [Example 70, 3-(1,1-Dioxothiomorpholin-4-yl)phenyl 4-phenylpiperidine-1-carboxylate], the IC50 on Human FAAH (MBPΔTMhFAAH), on Human MAGL (hMAGL), at ΔTM rat FAAH and on Rat MAGL (rMAGL) was 110 to 1000 nM each time.

For `Cc1ccc(S(=O)(=O)N2CCN(C(=O)Oc3ccc(Br)cc3)CC2)cc1` [Example 64, 4-bromophenyl 4-tosylpiperazine-1-carboxylate], the IC50 at Human FAAH (MBPΔTMhFAAH) was > 1000 nM; on Human MAGL (hMAGL), 10 to 100 nM; on ΔTM rat FAAH, > 1000 nM; on Rat MAGL (rMAGL), 10 to 100 nM.

In the case of `COc1cccc(OC(=O)N2CC(OCc3ccc(Br)cc3)C2)c1` [Example 78, 3-Methoxyphenyl 3-(4-Bromobenzyloxy)azetidine-1-carboxylate], the IC50 on Human FAAH (MBPΔTMhFAAH) is 10 to 100 nM; at Human MAGL (hMAGL) it was > 1000 nM; at ΔTM rat FAAH it was 10 to 100 nM; on Rat MAGL (rMAGL) it was > 1000 nM.

Turning to `O=C(Oc1ccccc1)N1C[C@@H]2C[C@H]1CN2Cc1cccc(-c2ccccc2)c1` [Example 101, phenyl (1S,4S)-5-([1,1′-biphenyl]-3-ylmethyl)-2,5-diazabicyclo[2.2.1]heptane-2-carboxylate], the IC50 on Human FAAH (MBPΔTMhFAAH) is 10 to 100 nM; at Human MAGL (hMAGL), > 1000 nM; on ΔTM rat FAAH, 10 to 100 nM; on Rat MAGL (rMAGL), > 1000 nM.

For `O=C(Nc1cccc(N2CCS(=O)(=O)CC2)c1)N1CCN(c2ccccc2)CC1` [Example 67, N-(3-(1,1-dioxidothiomorpholino)phenyl)-4-phenylpiperazine-1-carboxamide], the IC50 on Human FAAH (MBPΔTMhFAAH) was > 1000 nM; at Human MAGL (hMAGL), 10 to 100 nM; at ΔTM rat FAAH, > 1000 nM; on Rat MAGL (rMAGL) it was 10 to 100 nM.

Turning to `O=C(Oc1cccc(Br)c1)N1CC(OCc2ccc(Cl)cc2)C1` [Example 76, 3-Bromophenyl 3-(4-chlorobenzyloxy)azetidine-1-carboxylate], the IC50 at Human FAAH (MBPΔTMhFAAH) fell in the range of 10 to 100 nM; on Human MAGL (hMAGL) it was 110 to 1000 nM; on ΔTM rat FAAH, 10 to 100 nM; at Rat MAGL (rMAGL), 110 to 1000 nM.

`N#Cc1cccc(OC(=O)N2CC(OCc3ccc(Cl)cc3)C2)c1` [Example 74, 3-Cyanophenyl 3-(4-chlorobenzyloxy)azetidine-1-carboxylate]: the IC50 is 10 to 100 nM at Human FAAH (MBPΔTMhFAAH), 110 to 1000 nM on Human MAGL (hMAGL), 10 to 100 nM on ΔTM rat FAAH and > 1000 nM at Rat MAGL (rMAGL).

As for `NC(=O)c1cccc(-c2cccc(NC(=O)N3CCN(c4ccccc4)CC3)c2)c1` [Example 11, N-(3′-carbamoyl-[1,1′-biphenyl]-3-yl)-4-phenylpiperazine-1-carboxamide], the IC50 at Human FAAH (MBPΔTMhFAAH) is 10 to 100 nM; at Human MAGL (hMAGL), > 1000 nM; on ΔTM rat FAAH, 10 to 100 nM; on Rat MAGL (rMAGL), > 1000 nM.

As to `N#Cc1ccc(F)c(OC(=O)N2CCC(S(=O)(=O)c3ccc(Br)cc3)CC2)c1` [Example 60, 5-Cyano-2-fluorophenyl 4-(4-bromophenylsulfonyl)piperidine-1-carboxylate], the IC50 on Human FAAH (MBPΔTMhFAAH) fell in the range of 10 to 100 nM; at Human MAGL (hMAGL) it was 10 to 100 nM; at ΔTM rat FAAH, 110 to 1000 nM; at Rat MAGL (rMAGL) it was 10 to 100 nM.

Consider `N#Cc1cccc(-c2cccc(NC(=O)N3CCC(c4ccccc4)CC3)c2)c1` [Example 15, N-(3′-cyano-[1,1′-biphenyl]-3-yl)-4-phenylpiperidine-1-carboxamide], for which the IC50 on Human FAAH (MBPΔTMhFAAH), at Human MAGL (hMAGL), on ΔTM rat FAAH and at Rat MAGL (rMAGL) was > 1000 nM throughout.

“6-Chloropyridin-2-yl 4-(benzhydryl)piperidine-1-carboxylate [Example 51]”: the IC50 on Human FAAH (MBPΔTMhFAAH) was 10 to 100 nM; at Human MAGL (hMAGL), > 1000 nM; at ΔTM rat FAAH, 10 to 100 nM; at Rat MAGL (rMAGL), > 1000 nM.
